Values belong to the molecule of their own block, whether it stands above or below them.
Legend:
CAL-120 [1] = conditions: 72 h
Procedure, shortened: (§1)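 Breast cancer cell lines (20 µl suspension) were seeded into 384-well plates holding compound at 5 concentrations in 10-fold steps over a compound-specific 10,000-fold range, then incubated 72 h. Cell death was read first by CellTox Green fluorescence (485/520 nm), then viability by CellTiter-Glo luminescence after 10 min at room temperature. Each plate was normalised to 0.1 % DMSO and a positive kill control. EC50 was fitted from the dose-response curves and censored at the top concentration.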

MDA-MB-468 [2] = conditions: 72 h
Procedure, shortened: as §1

BT-474 [3] = conditions: 72 h
Procedure, shortened: as §1

BT-549 [4] = conditions: 72 h
Procedure, shortened: as §1

CAL-85-1 [5] = conditions: 72 h
Procedure, shortened: as §1

MDA-MB-453 [6] = conditions: 72 h
Procedure, shortened: as §1

MDA-MB-436 [7] = conditions: 72 h
Procedure, shortened: as §1

SK-BR-3 [8] = conditions: 72 h
Procedure, shortened: as §1

Hs578T [9] = conditions: 72 h
Procedure, shortened: as §1

MCF-10A = conditions: 72 h
Procedure, shortened: as §1

CAL-51 [10] = conditions: 72 h
Procedure, shortened: as §1

HCC1937 [11] = conditions: 72 h
Procedure, shortened: as §1

MDA-MB-436 [12] = experiment: normalised viability (% of control), CellTiter-Blue; higher = more viable cells (100 = DMSO, 0 = benzethonium chloride kill control); conditions: incubation time: 72 h
Procedure: (§2)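 DSRT, CellTiter-Blue viability, 72 h incubation. Signal is normalised to DMSO and benzethonium chloride controls. Value is the normalised response at dose 1.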

Hs578T [13] = experiment: as above; conditions: incubation time: 72 h
Procedure: as §2

CAL-120 [14] = experiment: normalised viability (% of control), CellTiter-Blue; higher = more viable cells (about 100 = DMSO control); conditions: incubation time: 72 h
Procedure, shortened: (§3)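 Each entry is normalised viability at a single listed concentration within a series. It comes from breast cancer cell lines incubated 72 h with compound in 384-well plates, then measured with CellTiter-Blue fluorescence at 560/590 nm. Every plate was normalised between vehicle (100) and a positive kill control (0).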

MDA-MB-468 [15] = experiment: as above; conditions: incubation time: 72 h
Procedure, shortened: as §3

HDQ-P1 [16] = experiment: as above; conditions: incubation time: 72 h
Procedure, shortened: as §3

DU-4475 = experiment: as above; conditions: incubation time: 72 h
Procedure, shortened: as §3

HCC1599 = experiment: as above; conditions: incubation time: 72 h
Procedure, shortened: as §3

BT-474 [17] = experiment: as above; conditions: incubation time: 72 h
Procedure, shortened: as §3

BT-549 [18] = experiment: as above; conditions: incubation time: 72 h
Procedure, shortened: as §3

MDA-MB-231 [19] = experiment: as above; conditions: incubation time: 72 h
Procedure, shortened: as §3

CAL-85-1 [20] = experiment: as above; conditions: incubation time: 72 h
Procedure, shortened: as §3

HCC1143 = experiment: as above; conditions: incubation time: 72 h
Procedure, shortened: as §3

MDA-MB-453 [21] = experiment: as above; conditions: incubation time: 72 h
Procedure, shortened: as §3

MDA-MB-436 [22] = experiment: as above; conditions: incubation time: 72 h
Procedure, shortened: as §3

SK-BR-3 [23] = experiment: as above; conditions: incubation time: 72 h
Procedure, shortened: as §3

Hs578T [24] = experiment: as above; conditions: incubation time: 72 h
Procedure, shortened: as §3

CAL-148 [25] = experiment: as above; conditions: incubation time: 72 h
Procedure, shortened: as §3

MFM-223 = experiment: as above; conditions: incubation time: 72 h
Procedure, shortened: as §3

CAL-51 [26] = experiment: as above; conditions: incubation time: 72 h
Procedure, shortened: as §3

HCC1937 [27] = experiment: as above; conditions: incubation time: 72 h
Procedure, shortened: as §3

HDQ-P1 [28] = experiment: as above; conditions: incubation time: 72 h; remark: listed apart in the source
Procedure, shortened: as §3

BT-474 [29] = experiment: as above; conditions: incubation time: 72 h; remark: listed apart in the source
Procedure, shortened: as §3

MDA-MB-231 [30] = experiment: as above; conditions: incubation time: 72 h; remark: listed apart in the source
Procedure, shortened: as §3

MDA-MB-436 [31] = experiment: as above; conditions: incubation time: 72 h; remark: listed apart in the source
Procedure, shortened: as §3

CAL-148 [32] = experiment: as above; conditions: incubation time: 72 h; remark: listed apart in the source
Procedure, shortened: as §3

EC50, CellTiter-Glo (MDA-MB-468 [2]): 3330 nM | EC50, CellTiter-Glo (BT-474 [3]): 6900 nM | EC50, CellTiter-Glo (BT-549 [4]): 5420 nM | EC50, CellTiter-Glo (MDA-MB-453 [6]): 9.61 nM | EC50, CellTiter-Glo (MDA-MB-436 [7]): 607 nM | EC50, CellTiter-Glo (SK-BR-3 [8]): 414 nM | EC50, CellTiter-Glo (HCC1937 [11]): 126 nM
Compound: Cn1cncc1[C@@](N)(c1ccc(Cl)cc1)c1ccc2c(c1)c(-c1cccc(Cl)c1)cc(=O)n2C [Tipifarnib]
EC50, CellTiter-Glo (CAL-120 [1]): 1370 nM | EC50, CellTiter-Glo (CAL-85-1 [5]): 9990 nM | EC50, CellTiter-Glo (Hs578T [9]): 7870 nM | EC50, CellTiter-Glo (MCF-10A): 237 nM | EC50, CellTiter-Glo (CAL-51 [10]): 82.5 nM | normalised viability (MDA-MB-436 [12]; 1 nM): 98.5% | normalised viability (Hs578T [13]; 1 nM): 93.2% | normalised viability (CAL-120 [14]; 10 nM): 77.6% | normalised viability (MDA-MB-468 [15]; 10 nM): 96.8% | normalised viability (HDQ-P1 [16]; 3 nM): 74.6% | normalised viability (DU-4475; 3 nM): 99.4% | normalised viability (HCC1599; 10 nM): 92.7% | normalised viability (BT-474 [17]; 10 nM): 109% | normalised viability (BT-549 [18]; 10 nM): 86.3% | normalised viability (MDA-MB-231 [19]; 10 nM): 82.2% | normalised viability (CAL-85-1 [20]; 3 nM): 81.4% | normalised viability (HCC1143; 10 nM): 71.9% | normalised viability (MDA-MB-453 [21]; 3 nM): 102% | normalised viability (MDA-MB-436 [22]; 10 nM): 94.1% | normalised viability (SK-BR-3 [23]; 10 nM): 91% | normalised viability (Hs578T [24]; 10 nM): 88.9% | normalised viability (CAL-148 [25]; 3 nM): 92.2% | normalised viability (MFM-223; 10 nM): 84.6% | normalised viability (CAL-51 [26]; 3 nM): 108% | normalised viability (HCC1937 [27]; 10 nM): 95.6% | normalised viability (HDQ-P1 [28]; 100 nM): 70.7% | normalised viability (BT-474 [29]; 10000 nM): 45% | normalised viability (MDA-MB-231 [30]; 10000 nM): 48.8% | normalised viability (MDA-MB-436 [31]; 10000 nM): 54.9% | normalised viability (CAL-148 [32]; 100 nM): 45.6%

Compound: C[C@]12CC[C@H](O)CC1=CC[C@@H]1[C@@H]2CC[C@]2(C)C(c3cccnc3)=CC[C@@H]12 [Abiraterone]
EC50, CellTiter-Glo (CAL-51 [10]): 43.4 nM | normalised viability (MDA-MB-436 [12]; 0.5 nM): 114% | normalised viability (Hs578T [13]; 0.5 nM): 95.3% | normalised viability (CAL-120 [14]; 5 nM): 81% | normalised viability (MDA-MB-468 [15]; 5 nM): 105% | normalised viability (HDQ-P1 [16]; 1.5 nM): 104% | normalised viability (DU-4475; 1.5 nM): 84.6% | normalised viability (HCC1599; 5 nM): 104% | normalised viability (BT-474 [17]; 5 nM): 116% | normalised viability (BT-549 [18]; 5 nM): 99.7% | normalised viability (MDA-MB-231 [19]; 5 nM): 86.8% | normalised viability (CAL-85-1 [20]; 1.5 nM): 93.2% | normalised viability (HCC1143; 5 nM): 67.2% | normalised viability (MDA-MB-453 [21]; 1.5 nM): 104% | normalised viability (MDA-MB-436 [22]; 5 nM): 101% | normalised viability (SK-BR-3 [23]; 5 nM): 97.7% | normalised viability (Hs578T [24]; 5 nM): 101% | normalised viability (CAL-148 [25]; 1.5 nM): 91.5% | normalised viability (MFM-223; 5 nM): 102% | normalised viability (CAL-51 [26]; 1.5 nM): 104% | normalised viability (HCC1937 [27]; 5 nM): 110% | normalised viability (HDQ-P1 [28]; 50 nM): 110% | normalised viability (BT-474 [29]; 5000 nM): 98.8% | normalised viability (MDA-MB-231 [30]; 5000 nM): 131% | normalised viability (MDA-MB-436 [31]; 5000 nM): 107% | normalised viability (CAL-148 [32]; 50 nM): 90.7%

Compound: Cn1c(=O)n(-c2ccc(C(C)(C)C#N)cc2)c2c3cc(-c4cnc5ccccc5c4)ccc3ncc21 [NVP-BEZ235]
normalised viability (MDA-MB-436 [12]; 0.1 nM): 119% | normalised viability (Hs578T [13]; 0.1 nM): 105% | normalised viability (CAL-120 [14]; 1 nM): 89.8% | normalised viability (MDA-MB-468 [15]; 1 nM): 102% | normalised viability (HDQ-P1 [16]; 0.3 nM): 110% | normalised viability (DU-4475; 0.3 nM): 125% | normalised viability (HCC1599; 1 nM): 104% | normalised viability (BT-474 [17]; 1 nM): 105% | normalised viability (BT-549 [18]; 1 nM): 101% | normalised viability (MDA-MB-231 [19]; 1 nM): 97.4% | normalised viability (CAL-85-1 [20]; 0.3 nM): 96.6% | normalised viability (HCC1143; 1 nM): 83.5% | normalised viability (MDA-MB-453 [21]; 0.3 nM): 110% | normalised viability (MDA-MB-436 [22]; 1 nM): 126% | normalised viability (SK-BR-3 [23]; 1 nM): 105% | normalised viability (Hs578T [24]; 1 nM): 100% | normalised viability (CAL-148 [25]; 0.3 nM): 95.2% | normalised viability (MFM-223; 1 nM): 99.1% | normalised viability (CAL-51 [26]; 0.3 nM): 105% | normalised viability (HCC1937 [27]; 1 nM): 128% | normalised viability (HDQ-P1 [28]; 10 nM): 69% | normalised viability (BT-474 [29]; 1000 nM): 41% | normalised viability (MDA-MB-231 [30]; 1000 nM): 27.1% | normalised viability (MDA-MB-436 [31]; 1000 nM): 63.2% | normalised viability (CAL-148 [32]; 10 nM): 73.5%

From the supplement of paper PMC4862054
